Columns and labels:
[1] = tested on: MES-SA/DX5 (uterine sarcoma, multidrug resistant); assay: In vitro cytotoxicity, MTS assay, multidrug resistant MES-SA/DX5 cells; format: cell-based, human; settings: for IC50: Homo sapiens, MES/DX5, MDR-1, 72 hours incubation; for Activity against multidrug resistant cell line MES/SA-DX compared with Taxol: comparison with Taxol
Procedure: (§1) The in vitro cytotoxicity of the compounds of the invention was determined in the following human cell lines: HL-60 ([…]), MES-SA and MES-SA/DX5 (uterine sarcoma). MES-SA is a model of uterine sarcoma, and the cell are sensitive to a number of chemotherapeutic agents including doxorubicin, dactinomycin, mitomycin C, taxol and bleomycin, but resistant to vinblastine and cisplatin. MES-SA/Dx5 was established in the presence of increasing concentrations of doxorubicin. […] All cells were purchased from ATCC.
(§2) The cell lines were maintained in RPMI1640 (GIBCO) supplemented with 10% FCS, 100 units/mL penicillin, 100 ug/ml streptomycin, and 2 mM L-glutamine. Cells were split every third day and diluted to a concentration of 2×10^5 cells/mL one day before the experiment was performed. All experiments were performed on exponentially growing cell cultures. Cell densities were 2.5×10^4 cells/mL in all experiments.
(§3) Compounds of the invention were prepared by dissolving the compound at a concentration of 10 mM in 100% DMSO. Final concentrations 10, 1, 0.1, 0.01 and 0.001 μM were obtained by diluting the stock solution directly into the tissue culture medium. Cells were incubated with varying concentrations of compound 3 for 72 hours and the IC50 was determined by MTS (i.e. […]) assay. IC50 in this context stands for the concentration of compound required to inhibit 50% tumor cell growth.

MES-SA (uterine sarcoma) = assay: In vitro cytotoxicity, MTS assay, MES-SA cells; format: cell-based; settings: Homo sapiens, Uterine Carcinoma, 72 hours incubation
Procedure: as §1, §2, §3

HL-60 (T-cell leukemia) = assay: In vitro cytotoxicity, MTS assay, HL-60 cells; format: cell-based; settings: Homo sapiens, HL60, Leukemia, 72 hours incubation, concentration to inhibit 50% tumor cell growth
Procedure: as §1, §2, §3

Row | SMILES | IC50 [1] | Activity against multidrug resistant cell line MES/SA-DX compared with Taxol [1] | IC50 (MES-SA (uterine sarcoma)) | IC50 (HL-60 (T-cell leukemia))
1 | COc1ccc(-c2cnsc2-c2cc(OC)c(OC)c(OC)c2)cc1 [Compound 3, 4-(4-methoxy-phenyl)-5-(3,4,5-trimethoxy-phenyl)-isothiazole] | 80 nM | much greater activity than Taxol | 100 nM | 474 nM
2 | COc1ccc(-c2cnsc2-c2cc(OC)c(OC)c(OC)c2)cc1N [Compound 64, 2-Methoxy-5-[5-(3,4,5-trimethoxy-phenyl)-isothiazol-4-yl]-phenylamine] | 33 nM | much greater activity than Taxol | 42 nM | 25 nM
3 | CC(=O)O[C@H]1C(=O)[C@@]2(C)[C@H]([C@H](OC(=O)c3ccccc3)[C@]3(O)C[C@H](OC(=O)[C@H](O)[C@@H](NC(=O)c4ccccc4)c4ccccc4)C(C)=C1C3(C)C)[C@]1(OC(C)=O)CO[C@@H]1C[C@@H]2O [Taxol, reference compound] | 10000 nM | – | 5 nM | 5 nM

From US8399435B2, “Compounds for the treatment of proliferative disorders” (Synta Pharmaceuticals Corp., priority 2005, dated 2013)
